Measurements from publication PMC8758714, “Effective prediction of biosynthetic pathway genes involved in bioactive polyphyllins in Paris polyphylla” (Communications Biology, 2022).

System: T1, PpUGT73CR1
T1 construct: gene UGT73CR1; tag removal not mentioned
Assay: HPLC quantification of product
Type: biochemical, Paris polyphylla var. yunnanensis
Details: 5 mM UDP-glucose, 50 mM Tris-HCl pH 8.0, 37 °C, 30 min, 20-400 µM acceptor
Excerpt: HPLC quantification of product on PpUGT73CR1

| SMILES | Km (product trillin) | Km (product floribundasaponin A) |
| --- | --- | --- |
| C[C@@H]1CC[C@@]2(OC1)O[C@H]1C[C@H]3[C@@H]4CC=C5C[C@@H](O)CC[C@]5(C)[C@H]4CC[C@]3(C)[C@H]1[C@@H]2C [diosgenin] | 53.7 ± 9.37 µM |  |
| C[C@@H]1CC[C@@]2(OC1)O[C@H]1C[C@H]3[C@@H]4CC=C5C[C@@H](O)CC[C@]5(C)[C@H]4CC[C@]3(C)[C@@]1(O)[C@@H]2C [pennogenin] |  | 73.4 ± 8.16 µM |
